Test results as given in EP4431111A1, “PROBIOTIC AS VACCINE IMMUNOADJUVANT” (COREE S.r.l., priority 2023, dated 2024).

Test system: A549 cells
Test: Cytotoxicity, LDH-release assay on A549 cells
Assay type: cell-based, human
Conditions: 1% Triton X-100, 10 minutes at room temperature, positive control C+ set at 100%
Experimental: The cytotoxicity of all the conditions tested was evaluated on A549 cells by the LDH activity assay. Cells were seeded in 96 well plate at a density of 3×10^4cells/well: they were leaved at 37°C for 24h and then they were co-cultured with S-protein alone or in the presence of aluminium-based adjuvant or heat-inactivated probiotic strains for 24h. At the end of this incubation period, the release of LDH in the supernatants was evaluated by commercial colorimetric kit following manufacturer's instruction. The control included medium alone used as blank. The spectrophotometric absorbance was measured at 450nm wavelength using a microplate reader.

## Triton X-100
  release of LDH: maximal release of LDH
